Assay: Moisture sorption analysis (DVS) of crystal Form B of apremilast
Type: physicochemical
Source text: FIG. 3B depicts a representative DVS plot of crystal Form B of apremilast.
The crystalline apremilast formed in the disclosed processes can be any crystalline form. Various crystalline apremilast forms are described in detail in PCT Publication No. WO 2009/120167, the disclosure of which is incorporated by reference in its entirety. In various embodiments, the crystalline apremilast formed by the processes disclosed herein can be Form A, Form B, or Form F. In some cases, the crystalline apremilast is Form B. Form B may be characterized by X-ray powder diffraction analysis. In certain embodiments, Form B is characterized by XRPD peaks located at one, two, three, four, five, six, seven, eight, nine, ten, eleven or twelve of the following approximate positions: 10.1, 12.4, 13.5, 15.7, 16.3, 18.1, 20.7, 22.5, 24.7, 26.2, 26.9, 29.1 degrees 2θ. […] In certain embodiments, Form B may be characterized by thermal analysis. In certain embodiments, Form B is characterized by a DSC plot comprising an endothermic event with an onset temperature of about 154° C. In certain embodiments, Form B is characterized by a TGA plot comprising a mass loss of less than about 1%, e.g., about 0.25%, of the total mass of the sample upon heating from about 25° C. to about 140° C. […] In certain embodiments, Form B is anhydrous. In certain embodiments, Form B is unsolvated. In certain embodiments, Form B may be characterized by moisture sorption analysis. […] In certain embodiments, mass gained upon adsorption is lost when the RH is decreased back to about 0% RH.

SMILES: CCOc1cc(C(CS(C)(=O)=O)N2C(=O)c3cccc(NC(C)=O)c3C2=O)ccc1OC (single isomer, unassigned; (+)) [Form B, (+)-2-[1-(3-ethoxy-4-methoxyphenyl)-2-methylsulfonylethyl]-4-acetylaminoisoindoline-1,3-dione]
- stability with respect to humidity: stable with respect to humidity
- XRPD pattern following the adsorption/desorption analysis (after adsorption/desorption analysis): substantially unchanged
- hygroscopicity (moisture sorption analysis): substantially nonhygroscopic

Reference: US12351555B2, “Process for synthesizing apremilast” (AMGEN INC., priority 2021, dated 2025)
